Measured values from PubChem BioAssay (NCI).
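These data come from cells grown in 96-well plates and exposed to compound for 48 hours at five concentrations. TGI marks complete inhibition of growth.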

Experiments:
Assay in all cases: inhibition of tumour cell growth, NCI panel, 48 h
786-0 renal = test system: 786-0 renal
A498 renal = test system: A498 renal
A549 NSCLC = test system: A549 NSCLC
ACHN renal = test system: ACHN renal
CAKI-1 renal = test system: CAKI-1 renal
CCRF-CEM leukemia = test system: CCRF-CEM leukemia
COLO 205 colon = test system: COLO 205 colon
DLD-1 colon = test system: DLD-1 colon
DMS 114 small cell lung = test system: DMS 114 small cell lung
DMS 273 small cell lung = test system: DMS 273 small cell lung
EKVX NSCLC = test system: EKVX NSCLC
HCC-2998 colon = test system: HCC-2998 colon
HCT-15 colon = test system: HCT-15 colon
HL-60(TB) leukemia = test system: HL-60(TB) leukemia
HOP-18 NSCLC = test system: HOP-18 NSCLC
HOP-62 NSCLC = test system: HOP-62 NSCLC
HOP-92 NSCLC = test system: HOP-92 NSCLC
IGROV1 ovarian = test system: IGROV1 ovarian
K-562 leukemia = test system: K-562 leukemia
KM12 colon = test system: KM12 colon
KM20L2 colon = test system: KM20L2 colon
LOX IMVI melanoma = test system: LOX IMVI melanoma
M19-MEL melanoma = test system: M19-MEL melanoma
MALME-3M melanoma = test system: MALME-3M melanoma
MOLT-4 leukemia = test system: MOLT-4 leukemia
NCI-H23 lung = test system: NCI-H23 lung
NCI-H460 lung = test system: NCI-H460 lung
NCI-H522 lung = test system: NCI-H522 lung
OVCAR-3 ovarian = test system: OVCAR-3 ovarian
OVCAR-5 ovarian = test system: OVCAR-5 ovarian
OVCAR-8 ovarian = test system: OVCAR-8 ovarian
RPMI-8226 leukemia = test system: RPMI-8226 leukemia
RXF 393 renal = test system: RXF 393 renal
SF-268 CNS = test system: SF-268 CNS
SF-295 CNS = test system: SF-295 CNS
SF-539 CNS = test system: SF-539 CNS
SK-MEL-2 melanoma = test system: SK-MEL-2 melanoma
SK-MEL-28 melanoma = test system: SK-MEL-28 melanoma
SK-MEL-5 melanoma = test system: SK-MEL-5 melanoma
SK-OV-3 ovarian = test system: SK-OV-3 ovarian
SN12C renal = test system: SN12C renal
SNB-19 CNS = test system: SNB-19 CNS
SNB-75 CNS = test system: SNB-75 CNS
SNB-78 CNS = test system: SNB-78 CNS
SW-620 colon = test system: SW-620 colon
TK-10 renal = test system: TK-10 renal
U251 CNS = test system: U251 CNS
UACC-62 melanoma = test system: UACC-62 melanoma
UO-31 renal = test system: UO-31 renal
HCT-116 colon = test system: HCT-116 colon
HT29 colon = test system: HT29 colon
LXFL 529 NSCLC = test system: LXFL 529 NSCLC
M14 melanoma = test system: M14 melanoma
OVCAR-4 ovarian = test system: OVCAR-4 ovarian
SR leukemia = test system: SR leukemia
UACC-257 melanoma = test system: UACC-257 melanoma

Question: COc1ccc(/C=C/C(=O)c2sc(NC(=S)NC(=O)c3ccccc3F)nc2C)cc1OC was tested. Which TGI (786-0 renal) did it give?
Answer: > 100 µM

Question: What about the TGI (A498 renal) of the same compound?
Answer: > 100 µM

Question: What about the TGI (A549 NSCLC) of the same compound?
Answer: > 100 µM

Question: What about the TGI (ACHN renal) of the same compound?
Answer: > 100 µM

Question: What about the TGI (CAKI-1 renal) of the same compound?
Answer: > 100 µM

Question: What about the TGI (CCRF-CEM leukemia) of the same compound?
Answer: > 100 µM

Question: And the TGI (COLO 205 colon)?
Answer: > 100 µM

Question: What about the TGI (DLD-1 colon) of the same compound?
Answer: > 100 µM

Question: What about the TGI (DMS 114 small cell lung) of the same compound?
Answer: > 100 µM

Question: And the TGI (DMS 273 small cell lung)?
Answer: > 100 µM

Question: And the TGI (EKVX NSCLC)?
Answer: > 100 µM

Question: What about the TGI (HCC-2998 colon) of the same compound?
Answer: > 100 µM

Question: What about the TGI (HCT-15 colon) of the same compound?
Answer: > 100 µM

Question: What about the TGI (HL-60(TB) leukemia) of the same compound?
Answer: > 100 µM

Question: And the TGI (HOP-18 NSCLC)?
Answer: > 100 µM

Question: What about the TGI (HOP-62 NSCLC) of the same compound?
Answer: > 100 µM

Question: And the TGI (HOP-92 NSCLC)?
Answer: > 100 µM

Question: What about the TGI (IGROV1 ovarian) of the same compound?
Answer: > 100 µM

Question: And the TGI (K-562 leukemia)?
Answer: > 100 µM

Question: And the TGI (KM12 colon)?
Answer: > 100 µM

Question: What about the TGI (KM20L2 colon) of the same compound?
Answer: > 100 µM

Question: And the TGI (LOX IMVI melanoma)?
Answer: > 100 µM

Question: What about the TGI (M19-MEL melanoma) of the same compound?
Answer: > 100 µM

Question: And the TGI (MALME-3M melanoma)?
Answer: > 100 µM

Question: And the TGI (MOLT-4 leukemia)?
Answer: > 100 µM

Question: What about the TGI (NCI-H23 lung) of the same compound?
Answer: > 100 µM

Question: And the TGI (NCI-H460 lung)?
Answer: > 100 µM

Question: What about the TGI (NCI-H522 lung) of the same compound?
Answer: 63.9 µM

Question: What about the TGI (OVCAR-3 ovarian) of the same compound?
Answer: > 100 µM

Question: What about the TGI (OVCAR-5 ovarian) of the same compound?
Answer: > 100 µM

Question: What about the TGI (OVCAR-8 ovarian) of the same compound?
Answer: > 100 µM

Question: What about the TGI (RPMI-8226 leukemia) of the same compound?
Answer: > 100 µM

Question: And the TGI (RXF 393 renal)?
Answer: > 100 µM

Question: What about the TGI (SF-268 CNS) of the same compound?
Answer: > 100 µM

Question: And the TGI (SF-295 CNS)?
Answer: > 100 µM

Question: And the TGI (SF-539 CNS)?
Answer: > 100 µM

Question: And the TGI (SK-MEL-2 melanoma)?
Answer: > 100 µM

Question: What about the TGI (SK-MEL-28 melanoma) of the same compound?
Answer: > 100 µM

Question: What about the TGI (SK-MEL-5 melanoma) of the same compound?
Answer: > 100 µM

Question: What about the TGI (SK-OV-3 ovarian) of the same compound?
Answer: > 100 µM

Question: And the TGI (SN12C renal)?
Answer: > 100 µM

Question: And the TGI (SNB-19 CNS)?
Answer: > 100 µM

Question: And the TGI (SNB-75 CNS)?
Answer: > 100 µM

Question: And the TGI (SNB-78 CNS)?
Answer: > 100 µM

Question: What about the TGI (SW-620 colon) of the same compound?
Answer: > 100 µM

Question: What about the TGI (TK-10 renal) of the same compound?
Answer: > 100 µM

Question: And the TGI (U251 CNS)?
Answer: > 100 µM

Question: And the TGI (UACC-62 melanoma)?
Answer: > 100 µM

Question: And the TGI (UO-31 renal)?
Answer: > 100 µM

Question: What does the source list for Cc1noc(C)c1C1=CCCCc2ccccc21?
Answer: TGI (786-0 renal): > 100 µM; TGI (A549 NSCLC): > 100 µM; TGI (ACHN renal): > 100 µM; TGI (CCRF-CEM leukemia): > 100 µM; TGI (COLO 205 colon): > 100 µM; TGI (DLD-1 colon): > 100 µM; TGI (DMS 114 small cell lung): > 100 µM; TGI (DMS 273 small cell lung): > 100 µM; TGI (EKVX NSCLC): > 100 µM; TGI (HCC-2998 colon): > 100 µM; TGI (HCT-116 colon): > 100 µM; TGI (HCT-15 colon): > 100 µM; TGI (HL-60(TB) leukemia): 62.7 µM; TGI (HOP-18 NSCLC): > 100 µM; TGI (HOP-62 NSCLC): > 100 µM; TGI (HOP-92 NSCLC): 85.1 µM; TGI (HT29 colon): > 100 µM; TGI (IGROV1 ovarian): > 100 µM; TGI (K-562 leukemia): > 100 µM; TGI (KM12 colon): > 100 µM; TGI (KM20L2 colon): > 100 µM; TGI (LXFL 529 NSCLC): > 100 µM; TGI (M14 melanoma): > 100 µM; TGI (M19-MEL melanoma): > 100 µM; TGI (MALME-3M melanoma): > 100 µM; TGI (MOLT-4 leukemia): > 100 µM; TGI (NCI-H23 lung): > 100 µM; TGI (NCI-H460 lung): > 100 µM; TGI (NCI-H522 lung): > 100 µM; TGI (OVCAR-3 ovarian): > 100 µM; TGI (OVCAR-4 ovarian): > 100 µM; TGI (OVCAR-5 ovarian): > 100 µM; TGI (OVCAR-8 ovarian): > 100 µM; TGI (RPMI-8226 leukemia): > 100 µM; TGI (RXF 393 renal): > 100 µM; TGI (SF-268 CNS): > 100 µM; TGI (SF-295 CNS): > 100 µM; TGI (SF-539 CNS): > 100 µM; TGI (SK-MEL-2 melanoma): > 100 µM; TGI (SK-MEL-28 melanoma): > 100 µM; TGI (SK-MEL-5 melanoma): > 100 µM; TGI (SK-OV-3 ovarian): > 100 µM; TGI (SN12C renal): > 100 µM; TGI (SNB-19 CNS): > 100 µM; TGI (SNB-75 CNS): 88.2 µM; TGI (SNB-78 CNS): > 100 µM; TGI (SR leukemia): 74.9 µM; TGI (SW-620 colon): > 100 µM; TGI (U251 CNS): > 100 µM; TGI (UACC-257 melanoma): > 100 µM; TGI (UACC-62 melanoma): > 100 µM; TGI (UO-31 renal): > 100 µM

Question: Cc1ccc(O)c(N=Nc2ccc(S(=O)(=O)O)cc2)n1 was tested. Which TGI (786-0 renal) did it give?
Answer: > 100 µM

Question: And the TGI (A498 renal)?
Answer: > 100 µM

Question: And the TGI (A549 NSCLC)?
Answer: > 100 µM

Question: What about the TGI (ACHN renal) of the same compound?
Answer: > 100 µM

Question: What about the TGI (CAKI-1 renal) of the same compound?
Answer: > 100 µM

Question: What about the TGI (CCRF-CEM leukemia) of the same compound?
Answer: > 100 µM

Question: What about the TGI (COLO 205 colon) of the same compound?
Answer: > 100 µM

Question: What about the TGI (DLD-1 colon) of the same compound?
Answer: > 100 µM

Question: What about the TGI (DMS 114 small cell lung) of the same compound?
Answer: > 100 µM

Question: What about the TGI (DMS 273 small cell lung) of the same compound?
Answer: > 100 µM

Question: And the TGI (EKVX NSCLC)?
Answer: 47.9 µM

Question: And the TGI (HCT-116 colon)?
Answer: > 100 µM

Question: What about the TGI (HCT-15 colon) of the same compound?
Answer: > 100 µM

Question: What about the TGI (HL-60(TB) leukemia) of the same compound?
Answer: > 100 µM

Question: And the TGI (HOP-18 NSCLC)?
Answer: > 100 µM

Question: And the TGI (HOP-92 NSCLC)?
Answer: > 100 µM

Question: And the TGI (IGROV1 ovarian)?
Answer: > 100 µM

Question: What about the TGI (K-562 leukemia) of the same compound?
Answer: > 100 µM

Question: What about the TGI (KM20L2 colon) of the same compound?
Answer: > 100 µM

Question: What about the TGI (LOX IMVI melanoma) of the same compound?
Answer: > 100 µM

Question: What about the TGI (LXFL 529 NSCLC) of the same compound?
Answer: > 100 µM

Question: What about the TGI (M14 melanoma) of the same compound?
Answer: > 100 µM

Question: What about the TGI (M19-MEL melanoma) of the same compound?
Answer: > 100 µM

Question: What about the TGI (MOLT-4 leukemia) of the same compound?
Answer: > 100 µM

Question: What about the TGI (NCI-H23 lung) of the same compound?
Answer: > 100 µM

Question: What about the TGI (NCI-H460 lung) of the same compound?
Answer: > 100 µM

Question: What about the TGI (NCI-H522 lung) of the same compound?
Answer: > 100 µM

Question: What about the TGI (OVCAR-8 ovarian) of the same compound?
Answer: > 100 µM

Question: What about the TGI (RPMI-8226 leukemia) of the same compound?
Answer: > 100 µM

Question: And the TGI (RXF 393 renal)?
Answer: > 100 µM

Question: And the TGI (SF-268 CNS)?
Answer: > 100 µM

Question: And the TGI (SF-295 CNS)?
Answer: > 100 µM

Question: And the TGI (SF-539 CNS)?
Answer: > 100 µM

Question: And the TGI (SK-MEL-28 melanoma)?
Answer: > 100 µM

Question: What about the TGI (SK-MEL-5 melanoma) of the same compound?
Answer: > 100 µM

Question: And the TGI (SK-OV-3 ovarian)?
Answer: > 100 µM

Question: What about the TGI (SN12C renal) of the same compound?
Answer: > 100 µM

Question: And the TGI (SW-620 colon)?
Answer: > 100 µM

Question: What about the TGI (TK-10 renal) of the same compound?
Answer: > 100 µM

Question: And the TGI (U251 CNS)?
Answer: > 100 µM

Question: What about the TGI (UACC-62 melanoma) of the same compound?
Answer: > 100 µM

Question: What about the TGI (UO-31 renal) of the same compound?
Answer: > 100 µM
